Data as given in ChEMBL document CHEMBL3616452 (Eur J Med Chem, 2015).

Target: Nucleoprotein (Influenza A virus (strain A/Wilson-Smith/1933 H1N1), UniProt P15682, S377G)
Assay: Binding affinity to Influenza A virus (A/WSN/1933(H1N1)) nucleoprotein S377G mutant transfected in 293T cells assessed as inhibition of RNA dependent RNA polymerase activity
Type: cell-based, Influenza A virus (A/Weiss/1943(H1N1))

`Cn1c(=O)c2c(-c3ccccc3)n3c(c2n(C)c1=O)C(c1ccccc1F)OCC3(C)C` (configuration not stated) showed an IC50 of 1700 nM.

Compound `Cc1onc(-c2ccccc2Cl)c1C(=O)N1CCN(c2ccc([N+](=O)[O-])cc2)CC1` has an IC50 of 300 nM.
